Experimental data from PMC7738871, “Covalent modification of Keap1 at Cys77 and Cys434 by pubescenoside a suppresses oxidative stress-induced NLRP3 inflammasome activation in myocardial ischemia-reperfusion injury” (Theranostics, 2021).

Assays:
[1] = tested on: RAW264.7 macrophages; assay: MTT cytotoxicity, RAW264.7; type: cell-based; settings: RAW264.7, under 240 μM, 48 h
Description: (§1) Cell viability was determined by MTT assays. PBA was prepared to a stock solution dissolved in dimethyl sulfoxide (DMSO). RAW264.7, H9c2 cells, primary mouse cardiomyocytes were treated with different doses of PBA, and DMSO only as control for 48 h for the toxicity. In addition, H9c2 cells or primary mouse cardiomyocytes were treated with the indicated doses of PBA, diazoxide as positive control, DMSO only as control, then cultured with or without OGD/R treatment. At the end of the experiments, MTT was added into each well at the concentration of 0.5 mg/ml, and incubated at 37 °C for 4 h. After removal of the supernatant, 150 μL of DMSO was added to solubilize the formazan products. And the solution was measured at the absorbance of 490 nm by a spectrophotometer (Thermo Fisher Scientific, MA, USA). The results of the MTT assay in all groups were normalized to the control group with DMSO only treatment.

[2] = tested on: OGD/R-induced primary mouse cardiomyocytes; assay: OGD/R-induced injury, MTT viability, primary cardiomyocytes; type: cell-based; settings: 10 and 30 μM, OGD 3 h, reperfusion 18 h
Description: The heart was removed from the neonatal C57BL/6 mice and cut into 1 mm^3 pieces in ice […] buffer. The tissues were digested with the mixture of 0.125% trypsin (Gibco, 15090-046) and 0.1% type II collagenase (Gibco, 17101-015) 6 min at 37 °C for three times until the tissues were completely digested. The cells were harvested and seeded in a dish. After 90 min of incubation, the cell culture medium was collected and centrifuged. The centrifuged cardiomyocytes were harvested, seeded on 0.1 % gelatin-coated culture plates with DMEM containing 10% FBS and […] Brdu, and incubated in a 37°C incubator.
as §1, with “After removal of the supernatant, 150 μL of DMSO was added to solubilize the formazan products.” left out, “The results of the MTT assay in all groups were normalized to the control group with DMSO only treatment.” left out

[3] = tested on: Nrf2; assay: Nrf2 nuclear translocation; type: cell-based, rat; settings: PBA for 6 h
Description: Total protein was isolated from H9c2 cells, primary mouse cardiomyocytes, RAW264.7 cells and heart tissue using 1X RIPA buffer containing phosphatase and proteinase inhibitors at 4 °C. After measurement of the concentration, the cell lysates were separated by sodium dodecyl sulphate polyacrylamide gel electrophoresis (SDS-PAGE) and transferred to polyvinylidene fluoride (PVDF) membranes. The membranes were blocked in Tris-buffered saline-Tween 20 (TBST) buffer with 5% BSA for 1 h and incubated with primary antibodies (1:1000 dilution) overnight at 4 °C. After the membranes was washed by TBST buffer for three times, they were incubated with horseradish peroxidase (HRP)-conjugated secondary mouse or rabbit antibodies (1:3,000 dilution) at room temperature (RT) for 1.5 h and then detected by SuperEnhanced chemiluminescence (ECL) reaction reagents (GBCBIO Technologies Inc., Guangzhou, Guangdong, China). […] After letting the membranes stand for 1-2 min, the bands of the respective proteins were detected with the exposure time of 10 ~60 s.
According to previous experiences, Nrf2 nucleus translocation could be detected at 6 h. […] After several washes with PBS, the bound antibodies were detected by Alexa Fluor 594-conjugated goat anti-rabbit or Alexa Fluor 488-conjugated goat anti-mouse IgG secondary antibody at RT for 1 h. […]

[4] = tested on: Keap1-dependent Nrf2 ubiquitination; assay: Keap1-dependent Nrf2 ubiquitination in 293T cells; type: cell-based, human
Description: Alkylation of the BTB domain of Keap1 by covalent modifiers contributes to the disruption of the Keap1-Cul3 interactions, leading to Nrf2 activation. Next, we investigated the effect of PBA on the modulation of Nrf2 ubiquitination as Nrf2 stability is controlled by ubiquitin-mediated proteasomal degradation. First, 3X Flag-Keap1, Myc-Nrf2 and Ub plasmids were transfected into 293T cells and then, the cells were treated with 30 μM PBA for 20 h and 5 μM MG132 for another 4 h. Cell lysates were pulled down using anti-Myc beads, and immunopurified Nrf2 was examined for the occurrence of Ub by western blotting. […] As shown in Figure 6E-F, PBA could disrupt the interaction of Keap1 and Cul3 in WT-Keap1 cells, while the disruption was blocked in the Cys77S and Cys434-Keap1 mutant cells.
Figure 6 PBA suppresses Keap1-mediated ubiquitination of Nrf2 by disrupting the interaction between Cul3 and Keap1. (A and B) PBA suppressed Nrf2 ubiquitination in a Keap1-Cys77 and C434-dependent manner. First, 293T cells were transfected with WT-Keap1 or C77S and C434S-Keap1, Myc-Nrf2, and Ub plasmids for 24 h and treated with 30 μM PBA. The cell lysates were immunoprecipitated using anti-Myc beads, and the ubiquitination level was evaluated using the anti-Ub antibody. (C and D) PBA induced the dissociation of the Nrf2-Keap1 complex. Then, 293T cells were cotransfected with WT-Keap1 and Flag-Nrf2 plasmids for 24 h and treated with 30 μM PBA for 12 h. The cell lysates were immunoprecipitated with the anti-Flag antibody, and the level of Nrf2 was assessed using the anti-Nrf2 antibody. (E and F) PBA disrupted the interaction between Cul3 and Keap1. […] The cell lysates were immunoprecipitated with the anti-Flag antibody, and the level of Cul3 was measured using the anti-Cul3 antibody. #p < 0.05, ##p < 0.01, ###p < 0.001, the control vs DMSO; *p < 0.05,**p < 0.01, ***p < 0.001, PBA or tBHQ vs DMSO. […] Cell viability was measured by MTT assays. #p < 0.05, ###p < 0.001, the control vs OGD/R; **p < 0.01, ***p < 0.001, OGD/R+PBA vs OGD/R.

## C=C(COC(=O)C=Cc1ccc(O)c(O)c1)C(O)COC1OC(CO)C(O)C(O)C1O (centres unmarked) [PBA, pubescenoside A]
[1]
  cell toxicity (MTT): did not exhibit any cell toxicity
[2]
  protection against OGD/R induced injury (cell viability, MTT): protected
[3]
  Nrf2 translocation into nucleus: significantly promoted
[4]; WT Keap1, 30 μM PBA 20 h, 5 μM MG132 4 h
  Keap1-dependent Nrf2 ubiquitination: significantly suppressed
[4]; mutant Cys77S and Cys434S-Keap1 vectors
  protection of Nrf2 from ubiquitination with mutant Keap1: unable to protect Nrf2 from ubiquitination
